Patent US8221762B2, “Naturally processed measles virus peptides from class II HLA molecules” (priority 2004, dated 2012)

Columns and labels:
[1] = system: PBMC from subjects previously immunized with MMR-II vaccine; test: T cell proliferation assay ([3H]-thymidine, 3 days, SI cut point 3.0), Example 1; assay type: cell-based, human; conditions: 95 subjects
From the text: Study participants included ninety-five healthy residents of Olmsted County, Minn., aged 11 to 18 years. […] Mononuclear leukocytes were isolated by Ficoll-Hypaque (Amersham) density gradient centrifugation.
For descriptive analyses, we used medians and ranges for continuous variables and frequencies for categorical variables. We compared cpm for MV-stimulated, MV-P1-stimulated and MV-P2-stimulated cells with unstimulated cells using Wilcoxon signed rank tests. Associations between the continuously distributed stimulation indices for MV-P1, MV-P2 peptides, and MV were determined using Spearman rank correlation coefficients. Stimulation indices were subsequently dichotomized into positive or negative using a cut point of 3.0. We then compared MV positivity with MV-P1 and MV-P2 positivity using estimates of sensitivity.

[2] = system: PBMC of subjects previously immunized with MMR-II vaccine; test: IFN-γ supernatant cytokine response (ELISA) to measles virus and synthetic measles peptides; assay type: cell-based, human; conditions: for Median secretion value IFN-γ: stimulated minus control cells
Description: (§1) To evaluate the immunogenicity of measles-derived peptides, 281 of these subjects (age 12 to 18 years) were studied.
(§2) Cryopreserved PBMC were used to measure cytokine responses to measles-derived peptides. We thawed cryopreserved PBMC at a concentration of 1×10^7 cells/mL using standard protocol. The vials were rapidly thawed in a 37° C. water bath and then washed twice with 10× volume of complete RPMI 1640 media supplemented with 10% FCS at 700 rpm for 5 minutes. The final cell pellet was resuspended in complete RPMI media containing penicillin-streptomycin (100 U/mL) and supplemented with 5% normal human AB sera (Ervin Sci., Santa Ana, Calif.). For IFN-γ determination, thawed PBMC were cultured at a concentration of 2×10^5 in RPMI containing 5% normal human AB sera with or without measles peptides (10 μg/well) and MV (positive control) at a moi of 0.5 for 6 days. For IL-4 determination in cell culture supernatants, we cultured thawed PBMC at a concentration of 4×10^5 in RPMI media, supplemented with 5% normal human AB sera. Cells were cultured in the presence of 2 μg/mL of IL-4 receptor antibody (R&D Systems, Minneapolis, Minn.) (Ekerfelt, et al., J. Immunol. Methods 260:55-67, 2002) with or without synthetic measles-derived peptides (10 μg/well) and MV (positive control) at a moi of 0.1 for 6 days. Cell culture supernatants were collected in a volume of 150 μl/well for both IFN-γ and IL-4 and were frozen at […] until assayed. The culture supernatants were assayed using a standard ELISA protocol (OptiEtA Human IFN-γ and IL-4, PharMingen, San Diego, Calif.) at a dilution of 1:1 in PBS containing 10% FCS. ELISA plates (Immulon-4, DYNEX Technologies Inc, Chantilly, Va.) were coated with capture IFN-γ or IL-4 mAb and incubated overnight at 4° C. The antibody-coated plates were incubated with diluted supernatant samples for 2 hours at room temperature followed by incubation with biotinylated mouse anti-human IFN-γor IL-4 conjugated to avidin-horseradish peroxidase for 1 hour at room temperature. The absorbance of the product was read using a microplate reader (Molecular Devices, Sunnyvale, Calif.) at 450 nm. The IFN-γ and IL-4 concentration of test samples was calculated by reference to the standard curve. Unstimulated and MV-stimulated secretion measurements for IFN-γ were performed in triplicate, while all other secretion measurements for both IFN-γ and IL-4 were performed in duplicate. Individual-specific values were then summarized by taking means of the duplicate or triplicate values. Mean background levels of IFN-γ and IL-4 cytokine production in cultures not stimulated with measles peptides or MV was subtracted from the mean antigen-induced responses to produce “corrected” secretion values. Negative corrected values indicate that the unstimulated secretion levels were, on average, higher than the stimulated secretion levels.
(§3) Two criteria were established to define positive responses for secreted IFN-γ and IL-4 cytokines using ELISA.

[3] = system: PBMC of subjects previously immunized with MMR-II vaccine; test: IL-4 supernatant cytokine response (ELISA) to measles virus and synthetic measles peptides; assay type: cell-based, human; conditions: for Median secretion value IL-4: stimulated minus control cells
Description: as §1, §2, §3

[4] = system: PBMC of subjects previously immunized with MMR-II vaccine; test: T cell proliferation assay ([3H]-thymidine, 4 days, SI>2 positive), Example 3; conditions: 131 subjects (MV-P2 130, MV-F 43)
Description: Briefly, study participants were enrolled as part of a larger stratified random sample study to assess associations between HLA genes and immune response to measles-mumps-rubella-II (MMR-II) vaccine in healthy, school-age children and young adults (ages 12 to 18 years). To evaluate the cellular responses to measles peptides, 131 subjects were used. In addition, a random subset of 43 individuals was tested for reactivity to a control measles fusion (F) peptide. All enrolled subjects had been previously immunized with two doses of MMR-II vaccine (Merck Research, West Point, Pa.) containing the attenuated Edmonston strain of MV. All but four of these participants were Caucasian and all subjects resided in a geographic area where no wild-type MV had circulated in the community during the subjects' lifetimes.
In brief, peripheral blood mononuclear cells (PBMC) were separated from heparinized blood by Ficoll-Hypaque (Sigma, St. Louis, Mo.) density gradient centrifugation and washed in RPMI 1640 medium (Celox Laboratories, Inc., St. Paul, Minn.) supplemented with 2 mM L-glutamine, 100 μg/ml streptomycin, 100 U/ml penicillin and 8% fetal calf serum (Life Technologies, Gaithersburg, Md.). Measles virus, MV-P1, MV-P2, and MV-F specific T cell responses were measures by proliferation of PBMC (2×10^5) incubated in RPMI-1640 medium, supplemented with 5% autologous sera, with live attenuated MV (50 pfu/ml, positive control) or synthetic peptides (20 μg/ml) compared to unstimulated cell control wells. Phytohemagglutinin (PHA, 5 μg/ml) was used to assess cell vitality. Only assays in which PBMC responded to PHA were accepted. T lymphocyte proliferation was measured after 4 days by [^3H]-tritiated thymidine uptake. Cells were then harvested onto glass fiber filters, using a 96-well harvesting system (Skatron Instruments, Norway). The amount of incorporated radioactivity was determined by a liquid scintillation counter (Packard Instrument Company, Boston, Mass.). We used six replicates of counts per minute (cpm) values for unstimulated cells, and three replicates each for T cells stimulated with peptides and live measles vaccine. For each subject, median cpm were calculated for unstimulated cells, as well as for cells stimulated with MV-P1, MV-P2, MV-F and measles. Results were then expressed as antigen-specific stimulation indices (SI), defined as the ratio of the median cpm of antigen-stimulated wells to the median cpm of unstimulated control wells. […] SI>2 was arbitrarily selected prior to the study as an indication of the presence of reactive peptide specific memory T cells, and SI<2 as an indicator of the lack of memory T lymphocytes to measles-derived peptides (Pauksen, et al., Bone Marrow Transplant 20:317-323, 1997).
Three outcomes were of primary interest: T cell proliferation (as measured by stimulation indices) induced separately by live MV, the MV-P1 peptide, and the MV-P2 peptide variant. Data were descriptively summarized using frequencies and percentages for all categorical variables, and medians and ranges for all continuous variables.

[5] = peptides 20 μg/ml, MV 50 PFU/well
[6] = 281 subjects, stimulated cells minus unstimulated cells
[7] = peptides 20 μg/ml, MV 50 pfu/ml, 4 days

CC[C@H](C)[C@H](NC(=O)[C@H](CCC(=O)O)NC(=O)CNC(=O)CNC(=O)[C@H](CCC(=O)O)NC(=O)[C@H](C)NC(=O)[C@@H](NC(=O)[C@H](CCC(=O)O)NC(=O)[C@@H](NC(=O)[C@H](CC(=O)O)NC(=O)[C@H](CO)NC(=O)[C@H](C)N)C(C)C)[C@@H](C)O)C(=O)N[C@@H](Cc1c[nH]cn1)C(=O)N[C@@H](CCC(=O)O)C(=O)N[C@@H](CC(C)C)C(=O)N[C@@H](CC(C)C)C(=O)N[C@@H](CCCNC(=N)N)C(=O)N[C@@H](CC(C)C)C(=O)N[C@@H](CCC(N)=O)C(=O)O [MV-P1]
subjects with stimulation index greater than 3.0 (recognized) [1]: 17%
stimulation index, median [1, 5]: 1.4
stimulation index, range [1, 5]: 0.5-20.3
median cpm value, lymphoproliferative assay ([1]; peptides 20 μg/ml, live attenuated MV 50 PFU/well, 3 days): 472 cpm
IFN-γ % Response (>20 pg/mL) ([2]; 281 subjects, peptides 10 μg/well, MV moi 0.5, 6 days): 55.9%
IFN-γ Median level [2, 6]: 28.0 pg/mL
Median secretion value IFN-γ ([2]; All other HLA-DRB1 alleles): 26.7 pg/mL
Median secretion value IFN-γ ([2]; HLA-DRB1 allele *0101): 51.2 pg/mL
Median secretion value IFN-γ ([2]; HLA-DRB1 allele *0102): 17.6 pg/mL
Median secretion value IFN-γ ([2]; HLA-DRB1 allele *0103): 116.2 pg/mL
Median secretion value IFN-γ ([2]; HLA-DRB1 allele *0301): 40.8 pg/mL
Median secretion value IFN-γ ([2]; HLA-DRB1 allele *0401): 33.5 pg/mL
Median secretion value IFN-γ ([2]; HLA-DRB1 allele *0402): 0.1 pg/mL
Median secretion value IFN-γ ([2]; HLA-DRB1 allele *0404): 52.2 pg/mL
Median secretion value IFN-γ ([2]; HLA-DRB1 allele *0407): 8.6 pg/mL
Median secretion value IFN-γ ([2]; HLA-DRB1 allele *0701): 18.6 pg/mL
Median secretion value IFN-γ ([2]; HLA-DRB1 allele *0801): 27.2 pg/mL
Median secretion value IFN-γ ([2]; HLA-DRB1 allele *0901): 19.9 pg/mL
Median secretion value IFN-γ ([2]; HLA-DRB1 allele *1001): 46.9 pg/mL
Median secretion value IFN-γ ([2]; HLA-DRB1 allele *1101): 48.5 pg/mL
Median secretion value IFN-γ ([2]; HLA-DRB1 allele *1103): 65.3 pg/mL
Median secretion value IFN-γ ([2]; HLA-DRB1 allele *1104): 15.4 pg/mL
Median secretion value IFN-γ ([2]; HLA-DRB1 allele *1201): 14.6 pg/mL
Median secretion value IFN-γ ([2]; HLA-DRB1 allele *1301): 27.4 pg/mL
Median secretion value IFN-γ ([2]; HLA-DRB1 allele *1302): 14.2 pg/mL
Median secretion value IFN-γ ([2]; HLA-DRB1 allele *1303): 63.9 pg/mL
Median secretion value IFN-γ ([2]; HLA-DRB1 allele *1401): 22.5 pg/mL
Median secretion value IFN-γ ([2]; HLA-DRB1 allele *1501): 32.8 pg/mL
Median secretion value IFN-γ ([2]; HLA-DRB1 allele *03011): 18.7 pg/mL
Median secretion value IFN-γ ([2]; Overall (281)): 28.0 pg/mL
MV IFN-γ responders who also produced IFN-γ to the peptide ([2]; among the 185 subjects who responded to MV): 59.5%
IL-4 % Response (>10 pg/mL) ([3]; 281 subjects, peptides 10 μg/well, MV moi 0.1, 6 days): 19.2%
IL-4 Median level [3, 6]: -0.4 pg/mL
Median secretion value IL-4 ([3]; All other HLA-DRB1 alleles): -1.3 pg/mL
Median secretion value IL-4 ([3]; HLA-DRB1 allele *0101): 1.1 pg/mL
Median secretion value IL-4 ([3]; HLA-DRB1 allele *0102): 5.6 pg/mL
Median secretion value IL-4 ([3]; HLA-DRB1 allele *0103): -1.5 pg/mL
Median secretion value IL-4 ([3]; HLA-DRB1 allele *0301): 3.5 pg/mL
Median secretion value IL-4 ([3]; HLA-DRB1 allele *0401): 0.9 pg/mL
Median secretion value IL-4 ([3]; HLA-DRB1 allele *0402): 3.8 pg/mL
Median secretion value IL-4 ([3]; HLA-DRB1 allele *0404): 0.3 pg/mL
Median secretion value IL-4 ([3]; HLA-DRB1 allele *0407): -2.1 pg/mL
Median secretion value IL-4 ([3]; HLA-DRB1 allele *0701): -0.6 pg/mL
Median secretion value IL-4 ([3]; HLA-DRB1 allele *0801): -1.4 pg/mL
Median secretion value IL-4 ([3]; HLA-DRB1 allele *0901): -0.9 pg/mL
Median secretion value IL-4 ([3]; HLA-DRB1 allele *1001): 0.9 pg/mL
Median secretion value IL-4 ([3]; HLA-DRB1 allele *1101): -3.7 pg/mL
Median secretion value IL-4 ([3]; HLA-DRB1 allele *1103): -3.5 pg/mL
Median secretion value IL-4 ([3]; HLA-DRB1 allele *1104): -1.3 pg/mL
Median secretion value IL-4 ([3]; HLA-DRB1 allele *1201): -0.4 pg/mL
Median secretion value IL-4 ([3]; HLA-DRB1 allele *1301): -3.0 pg/mL
Median secretion value IL-4 ([3]; HLA-DRB1 allele *1302): 1.2 pg/mL
Median secretion value IL-4 ([3]; HLA-DRB1 allele *1303): -4.2 pg/mL
Median secretion value IL-4 ([3]; HLA-DRB1 allele *1401): -0.8 pg/mL
Median secretion value IL-4 ([3]; HLA-DRB1 allele *1501): -0.7 pg/mL
Median secretion value IL-4 ([3]; HLA-DRB1 allele *03011): 0.2 pg/mL
Median secretion value IL-4 ([3]; Overall (281)): -0.4 pg/mL
MV IL-4 responders who also responded to the peptide ([3]; among the 143 subjects with IL-4 production from MV-stimulated PBMC): 23.1%
subjects with stimulation index greater than 2 (positive lymphoproliferative response) [4]: 41%
stimulation index, median [4, 7]: 1.7
stimulation index, range [4, 7]: 0.5-20.3
